For series [1], the system named is PC-12. The series is described as follows: Neuroprotective activity in rat PC12 cells assessed as inhibition of H2O2-induced cytotoxicity at 50 uM after 3 hrs by MTT assay relative to control. It counts as functional. The conditions noted are these: PC-12, 3 h. In general terms: Tetrazolium dyes change colour on reduction, which living cells bring about.
The test system of series [2] is Plasma. The experiment in a line: Anticoagulant activity in New Zealand white rabbit platelet-poor plasma assessed as prothrombin time at 100 uM. The class given is functional, Oryctolagus cuniculus.
Series [3] has as its system PC-12. The series is described as follows: Neuroprotective activity in rat PC12 cells assessed as inhibition of H2O2-induced cytotoxicity at 25 uM after 3 hrs by MTT assay relative to control. It counts as functional. Conditions: PC-12, 3 h.
Series [4] concerns Plasma. The series is described as follows: Anticoagulant activity in New Zealand white rabbit platelet-poor plasma assessed as thrombin time at 100 uM. It counts as functional, Oryctolagus cuniculus.
The nature of series [5]: Aqueous solubility of the compound by UV-Vis spectrophotometric analysis. It counts as physicochemical. Conditions: water.
Series [6] concerns Plasma. The experiment in a line: Anticoagulant activity in New Zealand white rabbit platelet-poor plasma assessed as activated partial thromboplastin time at 100 uM. The class given is functional, Oryctolagus cuniculus.
Series [7] relates to Plasma. The experiment in a line: Anticoagulant activity in New Zealand white rabbit platelet-poor plasma assessed as fibrinogen content at 100 uM. The class given is functional, Oryctolagus cuniculus.
The test system of series [8] is Radical scavenging activity. The experiment in a line: Antioxidant activity assessed as inhibition of DPPH-radical production. The class given is functional. (Loss of DPPH colour is used to gauge radical scavenging.)

≈ marks a conversion by molar mass, not a printed value.

We go through four compounds from ChEMBL document CHEMBL2311267, “Design, synthesis and biological evaluation of glucose-containing scutellarein derivatives as neuroprotective agents based on metabolic mechanism of scutellarin in vivo” (Bioorg Med Chem Lett, 2013).

The term inhibition denotes the percentage by which the read-out fell short of the control. Usually solubility stands for the dissolved amount per volume that the medium holds. A low value points to little dissolved substance. Usually IC50 stands for the point on the concentration scale where inhibition reaches its midpoint. On to `O=C(O)[C@H]1O[C@@H](Oc2cc3oc(-c4ccc(O)cc4)cc(=O)c3c(O)c2O)[C@H](O)[C@@H](O)[C@@H]1O` [SCUTELLARIN], for which the inhibition at 50 µM in series [1] amounted to 78.8%. Also, the PT in series [2] came out at 6.91 s. Also, the inhibition at 25 µM in series [3] was found to be 52.6%. Moreover, the TT in series [4] was 21.35 s. In series [5], this compound returned a solubility of 7.53 µM (≈ 3.48 µg/mL). The APTT in series [6] is 33.06 s. The Activity in series [7] is given as 37.96 g/L. Moreover, the IC50 in series [8] amounted to 26.8 µM.
With `O=c1cc(-c2ccc(O)cc2)oc2cc(O[C@@H]3O[C@H](CO)[C@H](O)[C@H](O)[C@H]3O)c(O)c(O)c12`, the inhibition at 50 µM in series [1] stood at 83.3%. The PT in series [2] came out at 9.93 s. In series [3], the inhibition at 25 µM came out at 61%. Further, the TT in series [4] was 29.17 s. This compound came in with a solubility in series [5] of 8.93 µM (≈ 4 µg/mL). The APTT in series [6] turned out to be 39.62 s. Also, the Activity in series [7] stood at 20.81 g/L. Besides, in series [8], the IC50 was found to be 28.4 µM.
With `O=c1cc(-c2ccc(O)cc2)oc2cc(O[C@@H]3O[C@H](CO)[C@@H](O)[C@H](O)[C@@H]3O)c(O)c(O)c12`, the inhibition at 50 µM in series [1] was 56.4%. In addition, the PT in series [2] was determined as 6.57 s. Further, in series [3], the inhibition at 25 µM amounted to 23.5%. For the same compound, the TT in series [4] worked out at 20.54 s. The compound further came in with a solubility in series [5] of 8.19 µM (≈ 3.67 µg/mL). The APTT in series [6] is reported as 38.2 s. In addition, in series [7], the Activity was determined as 26.68 g/L. The IC50 in series [8] stood at 34.9 µM.
Regarding `O=c1cc(-c2ccc(O)cc2)oc2cc(O[C@@H]3O[C@H](CO)[C@@H](O)[C@H](O)[C@H]3O)c(O)c(O)c12`, in series [1], the inhibition at 50 µM is 79.9%. Besides, the PT in series [2] stood at 7.81 s. For the same compound, the inhibition at 25 µM in series [3] is 65.5%. For the same compound, the TT in series [4] is reported as 18.13 s. This compound returned a solubility in series [5] of 7.85 µM (≈ 3.52 µg/mL). The APTT in series [6] was 43.06 s. Moreover, the Activity in series [7] is 32.43 g/L. Also, the IC50 in series [8] is 25.3 µM.
